# From patent publication US20030147950A1, “Modified release tamsulosin tablets” (priority 2001, published 2003)
# Experiment: Solubility of tamsulosin HCl in aqueous media
# Type: physicochemical
# Details: up to 10 mg
# Description: SGF represents a standard stomach condition. SIF represents a standard intestinal condition. FeSSIF is tailored to better represent the fed state while FaSSIF is tailored to better represent the fasting state. Note that not only are the pH different, but equally important, the osmolarity are also different.
smiles,measurement,value
"CCOc1ccccc1OCCNC(C)Cc1ccc(OC)c(S(N)(=O)=O)c1 (stereo not shown) [tamsulosin HCI, 5-[2-[[2-(2-ethoxyphenoxy)ethyl]amino]propyl]-2-methoxy-benzenesulfonamide]",volume of any aqueous media needed to dissolve until 10 mg,not more than 500 ml
